Common to all, as to type: cell-based
Test [1] relates to Escherichia coli. As to the kind of experiment: MALDI-TOF detection of characteristic proteins released after incubation with colistin (examples II-IV, centrifugation). The settings on record: colistin 2.5 mg/ml. As to the method:
This test was carried out using the following steps: • preparing a suspension of strains EC_S and EC_R of E. coli at 1 McFarland (McF) in water (suspension medium, bioMérieux reference 70700), • preparing a solution of colistin sulfate (Sigma, reference C4461) at a concentration of 5 mg/ml in pure water (taking into account the colistin titer indicated by the manufacturer), • mixing 250 μl of each suspension with 250 μl of colistin to obtain a solution of microorganism at 0.5 McF and at a concentration of 2.5 mg/ml of colistin, • homogenizing using a vortex for 5 seconds, • incubating the mixture for 4 hours at 37° C., • homogenizing using a vortex for 5 seconds, • centrifuging at 4700 rev/min (1500 g) for 5 minutes, • depositing 1 μl of the supernatant on a disposable target (bioMérieux reference 410893), • depositing 1 μl of HCCA matrix (bioMérieux, reference 411071) on the drop of supernatant, • analyzing the sample by MALDI-TOF spectrometry on VITEK-MS Plus (bioMérieux) with a method suitable for microbiology, i.e. with a positive ionization mode and a mass range from 2000 to 20 000 Th. • accumulating 100 profiles from 10 firings and comparing the data with the data contained in the databases for E. coli, • observing the presence or absence of protein peaks characteristic of E. coli. • determining the sensitivity to colistin if proteins characteristic of E. coli are detected or the resistance if no protein of E. coli is detected.
The E. coli strains S and R16 are analyzed with the same protocol as in example II apart from the incubation time of 30 minutes at 37° C. The S strain is sensitive to colistin and the R16 strain is resistant to colistin.
The same E. coli strains R16 and S are analyzed with the same protocol as in example III apart from incubation at 50° C.

Test [2] concerns Acinetobacter baumannii. The test is described as follows: MALDI-TOF detection of released characteristic proteins, 10 min at 50° C., filtration (example V). The settings on record: colistin 20 μg/ml, 10 min 50° C. As to the method:
(§1) The tests were carried out using the following steps: • preparing a suspension of microorganism at 2 McF in water (suspension medium, bioMérieux reference 70700), • preparing a solution of colistin sulfate (Sigma reference C4461) at a concentration of 2× in pure water (taking into account the colistin titer indicated by the manufacturer).
(§2) The strains of A. baumannii (AB_S044, AB_S045, AB_S046, AB_R-E105) and of Pseudomonas aeruginosa (PA_S062, PA_SE64, PA_RE66, PA_RE68) are analyzed with the protocol described in example V. Thus, they are incubated in the presence of 20 μg/ml of colistin.

For test [3], the system named is Pseudomonas aeruginosa. The test is described as above. Particulars: colistin 20 μg/ml, 10 min 50° C. The method, then: as §1, §2

Structures are written as SMILES. Bridge positions count the residues as written; N and C are the ends. Square brackets hold non-standard residues; d marks the D form. Peptide text beside a SMILES is read from it. * marks the point of attachment. Heptanoyl(6-Me) = CC(C)CCCCC(=O)*; Dab = NCC[C@H](N)C(=O)O

The results in this text go back to patent US12460243B2, “Mass spectrometry determination of the sensitivity or resistance of bacteria to an antibiotic” (priority 2019, dated 2025).

Regarding `CC(C)CCCCC(=O)N[C@@H](CCN)C(=O)N[C@H](C(=O)N[C@@H](CCN)C(=O)N[C@H]1CCNC(=O)[C@H]([C@@H](C)O)NC(=O)[C@H](CCN)NC(=O)[C@H](CCN)NC(=O)[C@H](CC(C)C)NC(=O)[C@@H](CC(C)C)NC(=O)[C@H](CCN)NC1=O)[C@@H](C)O` [colistin] ({Heptanoyl(6-Me)}-[Dab]T[Dab][Dab][Dab][dL]L[Dab][Dab]T; lactam 4-C), the “sensitivity or resistance to colistin by MALDI-TOF” value (shortened to “sensitivity or resistance”) in test [1] (strain EC_R, 4 h at 37° C.) is given as “resistant”; in test [1] (strain EC_S, 4 h at 37° C.) it was “sensitive”; in test [1] (strain R16, 30 min at 37° C.), “resistance”; in test [1] (strain R16, 30 min at 50° C.) it was “resistance”; in test [1] (strain S, 30 min at 37° C.), “sensitive”; in test [1] (strain S, 30 min at 50° C.), “sensitivity”. Besides, the “sensitivity or resistance” value in test [2] (strain AB_R-E105) is reported as “resistant”; in test [2] (strain AB_S044), “sensitive”; in test [2] (strain AB_S045) it was “sensitive”; in test [2] (strain AB_S046) it was “sensitive”; in test [3] (strain PA_RE66), “resistant”; in test [3] (strain PA_RE68) it was “resistant”. Besides, the “sensitivity or resistance” value in test [3] (strain PA_S062) and in test [3] (strain PA_SE64) was “sensitive” throughout.
